In ChEMBL document CHEMBL1681786, “Synthesis, biological evaluation and 3D-QSAR studies of 3-keto salicylic acid chalcones and related amides as novel HIV-1 integrase inhibitors” (Bioorg Med Chem, 2011):
pEC50, pIC50: −log10 of the molar value.

How the values were obtained:
[1] = target: T1, Human immunodeficiency virus type 1 integrase (Human immunodeficiency virus 1, UniProt Q7ZJM1); assay: Inhibition of Human immunodeficiency virus 1 integrase strand transfer activity after 30 mins by polyacrylamide gel electrophoresis
T1 sequence (Q7ZJM1 whole entry): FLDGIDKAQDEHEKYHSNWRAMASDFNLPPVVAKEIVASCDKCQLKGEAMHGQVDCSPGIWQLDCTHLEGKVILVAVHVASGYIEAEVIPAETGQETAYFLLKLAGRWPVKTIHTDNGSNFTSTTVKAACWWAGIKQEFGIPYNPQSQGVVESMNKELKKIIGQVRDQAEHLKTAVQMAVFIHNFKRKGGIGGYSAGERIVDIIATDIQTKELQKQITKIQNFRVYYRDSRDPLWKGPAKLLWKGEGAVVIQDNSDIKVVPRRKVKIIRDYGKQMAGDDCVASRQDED

[2] = target: T1, Human immunodeficiency virus type 1 integrase; assay: Inhibition of Human immunodeficiency virus 1 integrase-mediated 3'-processing after 30 mins by polyacrylamide gel electrophoresis
[3] = system: Human immunodeficiency virus 1; assay: Antiviral activity against Human immunodeficiency virus 1 LAI infected in human PBMC assessed as inhibition of viral replication after 5 days by reverse transcriptase assay; format: functional, organism-based; details: 120 h
PBMC = assay: Cytotoxicity against human PBMC after 6 days by trypan blue assay; details: 144 h
CCRF-CEM = assay: Cytotoxicity against human CEM cells after 6 days by trypan blue assay; details: 144 h

| Compound | pIC50 [1] | pIC50 [2] | pEC50 [3] | EC90 [3] [µM] | pIC50 (PBMC) | pIC50 (CCRF-CEM) |
| --- | --- | --- | --- | --- | --- | --- |
| N#Cc1cc(Br)cc(C(=O)/C=C/c2c(Cl)ccc(Cl)c2Cl)c1O | 4.36 | < 4.00 | – | – | – | – |
| O=C(O)c1cc(Br)cc(C(=O)/C=C/c2ccccc2F)c1O | 4.49 | 4.13 | – | – | – | – |
| COc1cccc2c(/C=C/C(=O)c3cc(Br)cc(C(=O)O)c3O)cccc12 | – | 4.27 | – | – | – | – |
| O=C(O)c1cc(Br)cc(C(=O)/C=C/c2cccc([N+](=O)[O-])c2)c1O | 4.49 | 4.31 | – | – | – | – |
| O=C(O)c1cc(Br)cc(C(=O)/C=C/c2cccc(OC(F)(F)F)c2)c1O | 4.28 | < 4.00 | – | – | – | – |
| O=C(O)c1cc(Br)cc(C(=O)NCc2ccc(F)cc2)c1O | 4.82 | < 4.00 | – | – | – | – |
| O=C(O)c1cc(Br)cc(C(=O)/C=C/c2ccc(Cl)cc2)c1O | 4.92 | 4.09 | – | – | – | – |
| O=C(NCc1ccc(F)cc1)c1cc(Br)ccc1O | < 4.00 | < 4.00 | – | – | – | – |
| Cc1cn([C@H]2C[C@H](N=[N+]=[N-])[C@@H](CO)O2)c(=O)[nH]c1=O [ZIDOVUDINE] | – | – | 8.60 | 0.01 | < 4.00 | 4.25 |
| Cc1cc(C(=O)O)c(O)c(C(=O)/C=C/c2c(Cl)ccc(Cl)c2Cl)c1 | 4.30 | < 4.00 | – | – | – | – |
| O=Cc1cc(Br)cc(C(=O)NCc2ccc(F)cc2)c1O | 5.10 | < 4.00 | 4.51 | 52.7 | 4.36 | 4.40 |
| O=C(O)c1cc(Br)cc(C(=O)/C=C/c2cccc(Cl)c2Cl)c1O | 4.72 | 4.24 | – | – | – | – |
| O=C(O)c1cc(Cl)cc(C(=O)/C=C/c2cc(Cl)ccc2Cl)c1O | 4.60 | 4.12 | – | – | – | – |
| O=C(O)c1cc(Br)cc(C(=O)/C=C/c2ccc(Cl)c(Cl)c2)c1O | 4.85 | 4.57 | – | – | – | – |
| O=C(O)c1cc(Br)cc(C(=O)/C=C/c2c(Cl)ccc(Cl)c2Cl)c1O | > 5.43 | 4.64 | 5.14 | 20.3 | 4.64 | 4.72 |
| O=C(O)c1cc(Br)cc(C(=O)/C=C/c2ccc(Cl)cc2Cl)c1O | 5.15 | 4.55 | 4.86 | 26 | 4.66 | 4.62 |
| O=C(O)c1cc(Cl)cc(C(=O)/C=C/c2ccc(Cl)cc2)c1O | 4.28 | 4.07 | – | – | – | – |
| O=C(O)c1cc(Br)cc(C(=O)/C=C/c2cccc(Oc3ccc(Cl)cc3)c2)c1O | 4.74 | 4.60 | – | – | – | – |
| O=C(O)c1cc(F)cc(C(=O)/C=C/c2cc(Cl)ccc2Cl)c1O | 4.54 | 4.30 | – | – | – | – |
| O=C(O)c1cc(Br)cc(C(=O)/C=C/c2ccc(Br)cc2)c1O | 5.30 | 4.96 | 5.06 | 21 | 4.61 | 4.56 |
| O=C(O)c1cc(Br)cc(C(=O)/C=C/c2c(Cl)cccc2Cl)c1O | 4.80 | 4.28 | – | – | – | – |
| O=C(O)c1cc(F)cc(C(=O)/C=C/c2ccc(Cl)cc2)c1O | 4.77 | 4.44 | – | – | – | – |
| O=C(O)c1cc(Br)cc(C(=O)/C=C/c2ccc(I)cc2)c1O | 4.46 | 4.16 | – | – | – | – |
| O=C(O)c1cc(F)cc(C(=O)CCc2cc(Cl)ccc2Cl)c1O | 4.24 | < 4.00 | – | – | – | – |
| O=C(O)c1cc(Cl)cc(C(=O)/C=C/c2ccc(Cl)cc2Cl)c1O | < 4.00 | < 4.00 | – | – | – | – |
| O=C(O)c1cc(Br)cc(C(=O)/C=C/c2cccc(Cl)c2)c1O | 5.05 | 4.35 | – | – | – | – |
| O=C(O)c1cc(Cl)cc(C(=O)/C=C/c2ccc(Cl)c(Cl)c2)c1O | 4.39 | 4.06 | – | – | – | – |
| COc1ccc(/C=C/C(=O)c2cc(Br)cc(C(=O)O)c2O)cc1OC1CCCC1 | 4.26 | 4.00 | – | – | – | – |

| Compound | pIC50 [1] | pIC50 [2] | pEC50 [3] | EC90 [3] [µM] | pIC50 (PBMC) | pIC50 (CCRF-CEM) |
| --- | --- | --- | --- | --- | --- | --- |
| Cc1cccc(C(=O)NCc2ccc(F)cc2)c1O | < 4.00 | < 4.00 | – | – | – | – |
| CCOc1ccc2ccccc2c1/C=C/C(=O)c1cc(Br)cc(C(=O)O)c1O | 4.34 | 4.04 | – | – | – | – |
| O=C(O)c1cc(Br)cc(C(=O)/C=C/c2ccccc2OCc2ccccc2)c1O | 5.05 | 4.68 | – | – | – | – |
| O=C(O)c1cc(Br)cc(C(=O)/C=C/c2cc(Cl)cc(Cl)c2Cl)c1O | 4.89 | 4.70 | – | – | – | – |
| O=C(/C=C/c1cc(Br)cc([N+](=O)[O-])c1O)c1cc(Cl)cc(Cl)c1Cl | – | < 3.48 | – | – | – | – |
| O=C(O)c1cc(F)cc(C(=O)/C=C/c2cccc(Cl)c2Cl)c1O | 4.52 | 4.26 | – | – | – | – |
| COc1ccc(/C=C/C(=O)c2cc(Br)cc(C(=O)O)c2O)c(Cl)c1OC | 4.12 | < 4.00 | – | – | – | – |
| O=C(O)c1cc(Br)cc(C(=O)/C=C/c2cccc(Br)c2)c1O | 4.74 | 4.72 | – | – | – | – |
| O=C(O)c1cc(Br)cc(C(=O)/C=C/c2ccccc2Cl)c1O | 4.85 | 4.28 | – | – | – | – |
| O=C(O)c1cc(Cl)cc(C(=O)/C=C/c2c(Cl)ccc(Cl)c2Cl)c1O | 4.52 | 4.11 | – | – | – | – |
| O=C(O)c1cc(Br)cc(C(=O)/C=C/c2ccsc2)c1O | 4.74 | 4.52 | – | – | – | – |
| O=C(O)c1cc(Br)cc(C(=O)/C=C/c2ccc3sccc3c2)c1O | 4.96 | 4.64 | 5.00 | 24.3 | 4.41 | 4.68 |
| O=C(O)c1cc(Br)cc(C(=O)/C=C/c2ccc(Oc3ccc(Cl)cc3)cc2)c1O | 4.80 | 4.66 | – | – | – | – |
| O=C(O)c1cc(F)cc(C(=O)/C=C/c2ccc(Cl)cc2Cl)c1O | 4.62 | 4.28 | – | – | – | – |
| COc1cc(F)c(/C=C/C(=O)c2cc(Br)cc(C(=O)O)c2O)cc1OC | 4.12 | < 4.00 | – | – | – | – |
| O=C(O)c1cc(Cl)cc(C(=O)/C=C/c2cc(Cl)cc(Cl)c2Cl)c1O | 4.77 | 4.26 | – | – | – | – |
| O=C(O)c1cc(Br)cc(C(=O)/C=C/c2ccccc2-c2ccco2)c1O | 4.80 | < 4.00 | – | – | – | – |
| COc1cccc(/C=C/C(=O)c2cc(Br)cc(C(=O)O)c2O)c1OC | 4.47 | 4.21 | – | – | – | – |
| O=C(O)c1cc(Cl)cc(C(=O)/C=C/c2cccc(Cl)c2Cl)c1O | 4.04 | 4.00 | – | – | – | – |
| COc1ccc(/C=C/C(=O)c2cc(Br)cc(C(=O)O)c2O)c(OC)c1OC | 4.29 | 4.07 | – | – | – | – |
| O=C(O)c1cc(Br)cc(C(=O)/C=C/c2ccccc2)c1O | 4.60 | 4.12 | – | – | – | – |
| O=C(O)c1cc(F)cc(C(=O)/C=C/c2c(Cl)ccc(Cl)c2Cl)c1O | 4.41 | 4.09 | – | – | – | – |
| O=C(O)c1cc(Br)cc(C(=O)/C=C/c2cc3c(cc2Cl)OCO3)c1O | 4.20 | 4.10 | – | – | – | – |
| Cc1cc(C)cc(/C=C/C(=O)c2cc(Br)cc(C(=O)O)c2O)c1 | 4.24 | < 4.00 | – | – | – | – |
| O=C(O)c1cc(Br)cc(C(=O)/C=C/c2cccc(F)c2)c1O | 4.23 | 4.15 | – | – | – | – |
| O=C(O)c1cc(Br)cc(C(=O)/C=C/c2cc(Cl)ccc2Cl)c1O | 4.74 | 4.33 | – | – | – | – |
| O=C(O)c1cc(F)cc(C(=O)/C=C/c2cc(Cl)cc(Cl)c2Cl)c1O | 4.82 | 4.48 | – | – | – | – |
